Results taken from patent US8969565B2, “Imidazo[1,2-b]pyridazine-based compounds, compositions comprising them, and methods of their use” (Lexicon Pharmaceuticals, Inc., priority 2012, dated 2015).

Target: T1, AAK1 (Homo sapiens, UniProt Q2M2I8)
T1 construct: HA; expressed in transfected cells; host or cells: HEK293F
Test: HEK281 cell-based assay (phospho-mu2 Western blot in transfected HEK293F cells)
Settings: 3 hours incubation, read-out: CBA IC50
Description: HEK293F cells were cultured in media containing DMEM (Gibco, cat. #11965), 10% FBS (SAFC Biosciences, cat. #12103C), 1×GPS (glutamine, penicillin and streptomycin). On day one, cells were plated on a 10 cm dish so that they are ˜80% confluent at time of transfection. Roughly 12 million cells were in a 10 cm dish at time of transfection. On day two, each dish was transfected with 48 ug DNA and 144 ul Lipofectamine 2000 (Invitrogen, cat.#11668-019). The DNA was comprised of a mixture (per 10 cm dish) containing 3 ug AAK1/HA/pIRES (full length human, NCBI accession no. NP_055726.2), 45 μg Flag/AP2MI/pcDNA (full length human), and 1.5 ml OPTI-MEM. The Lipofectamine 2000 is made up of a mixture (per 10 cm dish) containing 144 μl Lipofectamine 2000 and 1.5 ml OPTI-MEM. Each mixture was transferred to individual 15 ml tubes and incubated at RT for 5 minutes, and then the two mixes were combined and incubated at RT for 20 minutes. Growth media was then aspirated from each 10 cm plate and replaced with 10 ml of DMEM+10% FBS (no GPS). Finally, 3 ml DNA/Lipofectamine mix was added to each 10 cm dish and mix gently followed by incubate of plate overnight at 37° C. and 5% CO2.
On day three, compounds were diluted in 100% DMSO at 1000× final concentration, followed by 3-fold serial dilutions for a total of 5 concentrations tested. Four compounds were tested per 10 cm dish. One ul of each compound dilution was then pipetted into a deep-well, 96-well plate, followed by addition of 500 μl DMEM+0.5% FBS into each well for a 2× final concentration of each compound. Cells were resuspended in a 10 cm dish by simple pipetting (HEK293 cells come off the plate that easy at this point) and then transferred to a 50 ml conical tube and pelleted by centrifugation at 1000 rpm for 5 min. Cell pellets were then resuspended in 2.75 ml DMEM+0.5% FBS per 10 cm dish and 100 μl of cell suspension transferred into each well of 96-well TC plate. Finally, 100 μl of 2× compound diluted in DMEM+0.5% FBS was then added into wells containing cell suspension for a 1× final concentration. Plates were then incubated at 37° C. and 5% CO2 for 3 hours followed by transferring of cell suspensions from each well into 12-tube PCR strips. The PCR strips were spun in a tip rack at 1000 rpm for 5 minutes to pellet cells and media was then removed by pipetting without disturbing the cell pellet.
To prepare for Western Blot analysis, cell pellets were resuspend in 40 ul 1×LDS-PAGE sample buffer (Invitrogen, cat.#NP0008)+2× Halt phophatase and protease inhibitor cocktail (Thermo Scientific, cat.#1861284), followed by sonicating each with microtip sonicator set at 5 for 8-10 seconds. Five ul of 10× NuPage Sample Reducing Agent (with 50 mM DTT) was to each sample followed by heat denaturing at 70 C for 10 min on PCR machine. A total of 10 μl per sample was loaded into each lane of a 4-20% Tris-Glycine Criterion 26-well gel (Biorad, cat.#345-0034) for the phospho-mu2 blot and 10 μl per lane in a 4-12% Bis-Tris (+MES buffer) NuPAGE 26-well gel (Invitrogen, cat.#WG1403BX10) for the mu2 blot. For controls, 2 ng of phospho-mu2 or 20 ng mu2/Flag proteins were loaded in the last well of each gel. After SDS-PAGE, samples on each gel were transferred to PVDF membrane using an iBlot and membranes were blocked for one hour in TBST+5% milk, followed by wash 3× for 5-10 min with TBST. Criterion gels were probed with rabbit anti-phospho-mu2 (1:5000; a rabbit polyclonal antibody produced by New England Peptide and affinity purified at Lexicon) in TBST+5% BSA, whereas, NuPAGE gels were probed with mouse anti-Flag (1:500; Sigma, cat.#F1804) in TBST+5% milk, and these primary antibodies were incubated overnight at 4° C. on a rocker.

T1 sequence (Q2M2I8 1-863 isoform Q2M2I8-2): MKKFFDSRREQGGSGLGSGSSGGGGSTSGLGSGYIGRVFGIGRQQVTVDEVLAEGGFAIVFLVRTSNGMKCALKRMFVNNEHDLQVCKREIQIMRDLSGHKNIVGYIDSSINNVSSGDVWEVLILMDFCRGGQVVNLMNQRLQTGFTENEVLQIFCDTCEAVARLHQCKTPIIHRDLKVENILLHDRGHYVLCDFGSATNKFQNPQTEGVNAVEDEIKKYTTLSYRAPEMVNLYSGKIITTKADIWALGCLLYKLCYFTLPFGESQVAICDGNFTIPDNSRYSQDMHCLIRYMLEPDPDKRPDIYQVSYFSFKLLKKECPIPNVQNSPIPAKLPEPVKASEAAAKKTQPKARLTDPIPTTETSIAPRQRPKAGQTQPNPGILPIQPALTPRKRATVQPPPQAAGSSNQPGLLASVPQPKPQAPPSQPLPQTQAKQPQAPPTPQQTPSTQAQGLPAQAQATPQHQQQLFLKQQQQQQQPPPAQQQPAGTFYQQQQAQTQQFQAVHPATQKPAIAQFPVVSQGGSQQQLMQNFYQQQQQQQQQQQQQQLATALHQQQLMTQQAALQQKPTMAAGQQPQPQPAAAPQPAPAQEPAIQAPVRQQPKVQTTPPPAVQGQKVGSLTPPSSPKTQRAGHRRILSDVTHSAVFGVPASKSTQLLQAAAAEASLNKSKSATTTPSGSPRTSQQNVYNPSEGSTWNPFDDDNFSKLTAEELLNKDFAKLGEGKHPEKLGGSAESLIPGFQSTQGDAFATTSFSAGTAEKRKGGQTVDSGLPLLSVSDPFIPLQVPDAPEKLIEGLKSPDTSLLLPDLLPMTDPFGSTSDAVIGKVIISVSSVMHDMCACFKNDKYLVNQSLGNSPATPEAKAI

IC50 [nM] | SMILES
≤ 100 | CC(C)(C)N1CCN(CCNc2ccc3ncc(-c4ccc(CN)cc4)n3n2)C1=O [1-(2-((3-(4-(aminomethyl)phenyl)imidazo[1,2-b]pyridazin-6-yl)amino)ethyl)-3-(tert-butyl)imidazolidin-2-one]
≤ 100 | COc1cnccc1-c1cnc2ccc(N3CCN(C(=O)CC(C)(C)C)CC3)nn12 [1-(4-(3-(3-methoxypyridin-4-yl)imidazo[1,2-b]pyridazin-6-yl)piperazin-1-yl)-3,3-dimethylbutan-1-one]
≤ 100 | CC(=O)c1ccc(-c2cnc3ccc(NCCN(C)c4ccccc4)nn23)s1 [1-(5-(6-((2-(methyl(phenyl)amino)ethyl)amino)imidazo[1,2-b]pyridazin-3-yl)thiophen-2-yl)ethanone]
≤ 1000 | CNCCCNc1ccc2ncc(-c3ccc(C(C)=O)s3)n2n1 [1-(5-(6-((3-(methylamino)propyl)amino)imidazo[1,2-b]pyridazin-3-yl)thiophen-2-yl)ethanone]
≤ 1000 | COCCCNc1ccc2ncc(-c3ccc(C(C)=O)s3)n2n1 [1-(5-(6-((3-methoxypropyl)amino)imidazo[1,2-b]pyridazin-3-yl)thiophen-2-yl)ethanone]
≤ 100 | CCCCN(C)c1ccc2ncc(-c3ccc(C(C)=O)s3)n2n1 [1-(5-(6-(butyl(methyl)amino)imidazo[1,2-b]pyridazin-3-yl)thiophen-2-yl)ethanone]
≤ 1000 | CC(=O)c1ccc(-c2cnc3ccc(NCC(C)C)nn23)s1 [1-(5-(6-(isobutylamino)imidazo[1,2-b]pyridazin-3-yl)thiophen-2-yl)ethanone]
≤ 1000 | CCCNc1ccc2ncc(-c3ccc(C(C)=O)s3)n2n1 [1-(5-(6-(propylamino)imidazo[1,2-b]pyridazin-3-yl)thiophen-2-yl)ethanone]
≤ 100 | COc1cnccc1-c1cnc2ccc(NCCN3CCN(C(C)(C)C)C3=O)nn12 [1-(tert-butyl)-3-(2-((3-(3-methoxypyridin-4-yl)imidazo[1,2-b]pyridazin-6-yl)amino)ethyl)imidazolidin-2-one]
≤ 1000 | COc1cnccc1-c1cnc2ccc(NCCN(C(=O)OCCF)C(C)C)nn12 [2-fluoroethyl isopropyl(2-((3-(3-methoxypyridin-4-yl)imidazo[1,2-b]pyridazin-6-yl)amino)ethyl)carbamate]
≤ 1000 | CCCCNc1ccc2ncc(-c3ccnc(N)c3)n2n1 [3-(2-aminopyridin-4-yl)-N-butylimidazo[1,2-b]pyridazin-6-amine]
≤ 1000 | COc1ncccc1-c1cnc2ccc(NCC3CCOC3)nn12 (centres unmarked) [3-(2-methoxypyridin-3-yl)-N-((tetrahydrofuran-3-yl)methyl)imidazo[1,2-b]pyridazin-6-amine]
≤ 10 | COc1cnccc1-c1cnc2ccc(NCCCC(F)(F)F)nn12 [3-(3-methoxypyridin-4-yl)-N-(4,4,4-trifluorobutyl)imidazo[1,2-b]pyridazin-6-amine]
≤ 100 | CCCCNc1ccc2ncc(-c3ccc(OCCN)cc3)n2n1 [3-(4-(2-aminoethoxy)phenyl)-N-butylimidazo[1,2-b]pyridazin-6-amine]
≤ 100 | CC(C)(C)CCNc1ccc2ncc(-c3ccc(OCCCN)cc3)n2n1 [3-(4-(3-aminopropoxy)phenyl)-N-(3,3-dimethylbutyl)imidazo[1,2-b]pyridazin-6-amine]
≤ 100 | NCCCOc1ccc(-c2cnc3ccc(NCCCc4ccccc4)nn23)cc1 [3-(4-(3-aminopropoxy)phenyl)-N-(3-phenylpropyl)imidazo[1,2-b]pyridazin-6-amine]

IC50 [nM] | SMILES
≤ 100 | CC(C)(C)CCNc1ccc2ncc(-c3ccc(COCCN)cc3)n2n1 [3-(4-((2-aminoethoxy)methyl)phenyl)-N-(3,3-dimethylbutyl)imidazo[1,2-b]pyridazin-6-amine]
≤ 1000 | CCCCCNc1ccc2ncc(-c3ccc(CNCCOC)cc3)n2n1 [3-(4-(((2-methoxyethyl)amino)methyl)phenyl)-N-pentylimidazo[1,2-b]pyridazin-6-amine]
≤ 1000 | CCCCNc1ccc2ncc(-c3ccc(CN)cc3)n2n1 [3-(4-(Aminomethyl)phenyl)-N-butylimidazo[1,2-b]pyridazin-6-amine]
≤ 100 | NCc1ccc(-c2cnc3ccc(NC4COC5(CCCC5)C4)nn23)cc1 (centres unmarked) [3-(4-(aminomethyl)phenyl)-N-(1-oxaspiro[4.4]nonan-3-yl)imidazo[1,2-b]pyridazin-6-amine]
≤ 100 | NCc1ccc(-c2cnc3ccc(NCCOC4CCCC4)nn23)cc1 [3-(4-(aminomethyl)phenyl)-N-(2-(cyclopentyloxy)ethyl)imidazo[1,2-b]pyridazin-6-amine]
≤ 100 | CC(C)(C)COCCNc1ccc2ncc(-c3ccc(CN)cc3)n2n1 [3-(4-(aminomethyl)phenyl)-N-(2-(neopentyloxy)ethyl)imidazo[1,2-b]pyridazin-6-amine]
≤ 10 | NCc1ccc(-c2cnc3ccc(NCCc4ccccc4OC(F)(F)F)nn23)cc1 [3-(4-(aminomethyl)phenyl)-N-(2-(trifluoromethoxy)phenethyl)imidazo[1,2-b]pyridazin-6-amine]
≤ 100 | NCc1ccc(-c2cnc3ccc(NCCC4CCCCC4)nn23)cc1 [3-(4-(aminomethyl)phenyl)-N-(2-cyclohexylethyl)imidazo[1,2-b]pyridazin-6-amine]
≤ 1000 | NCc1ccc(-c2cnc3ccc(NCCC4CC4)nn23)cc1 [3-(4-(aminomethyl)phenyl)-N-(2-cyclopropylethyl)imidazo[1,2-b]pyridazin-6-amine]
≤ 100 | CCOc1ccccc1CCNc1ccc2ncc(-c3ccc(CN)cc3)n2n1 [3-(4-(aminomethyl)phenyl)-N-(2-ethoxyphenethyl)imidazo[1,2-b]pyridazin-6-amine]
≤ 100 | NCc1ccc(-c2cnc3ccc(NCCc4ccccc4F)nn23)cc1 [3-(4-(aminomethyl)phenyl)-N-(2-fluorophenethyl)imidazo[1,2-b]pyridazin-6-amine]
≤ 100 | CC(C)OCCNc1ccc2ncc(-c3ccc(CN)cc3)n2n1 [3-(4-(aminomethyl)phenyl)-N-(2-isopropoxyethyl)imidazo[1,2-b]pyridazin-6-amine]
≤ 10 | COc1ccccc1CCNc1ccc2ncc(-c3ccc(CN)cc3)n2n1 [3-(4-(aminomethyl)phenyl)-N-(2-methoxyphenethyl)imidazo[1,2-b]pyridazin-6-amine]
≤ 1000 | CCC(C)CNc1ccc2ncc(-c3ccc(CN)cc3)n2n1 (centres unmarked) [3-(4-(aminomethyl)phenyl)-N-(2-methylbutyl)imidazo[1,2-b]pyridazin-6-amine]
≤ 1000 | NCc1ccc(-c2cnc3ccc(NCCOc4ccccc4)nn23)cc1 [3-(4-(aminomethyl)phenyl)-N-(2-phenoxyethyl)imidazo[1,2-b]pyridazin-6-amine]

SMILES | IC50 [nM]
Cc1nc(C)c(-c2cnc3ccc(NCCOCC(C)C)nn23)s1 [3-(2,4-dimethylthiazol-5-yl)-N-(2-isobutoxyethyl)imidazo[1,2-b]pyridazin-6-amine] | ≤ 1000
CC(C)(C)OCCCNc1ccc2ncc(-c3ccnc(N)c3)n2n1 [3-(2-aminopyridin-4-yl)-N-(3-(tert-butoxy)propyl)imidazo[1,2-b]pyridazin-6-amine] | ≤ 1000
CC(C)(C)OCCNc1ccc2ncc(-c3ccc(CN)cc3)n2n1 [3-(4-(aminomethyl)phenyl)-N-(2-(tert-butoxy)ethyl)imidazo[1,2-b]pyridazin-6-amine] | ≤ 100
CC(C)COCCNc1ccc2ncc(-c3ccc(CN)cc3)n2n1 [3-(4-(aminomethyl)phenyl)-N-(2-isobutoxyethyl)imidazo[1,2-b]pyridazin-6-amine] | ≤ 100
